Experimental data: ChEMBL document CHEMBL3044667, “Insecticidal activities of crude extracts and phospholipids from Chenopodium ficifolium against melon and cotton aphid, Aphis gossypii” (2010)
Calls of active or inactive are those of the source. The rule behind the calls is not given here.

Columns and labels:
Aphis gossypii [1] = experiment: Insecticidal activity against Aphis gossypii (cotton aphid) infested fourth-leaf stage cucumber seedlings followed by compound exposure at 1000 ug/ml assessed as induction of insect death on leaves after 48 hr post compound treatment relative to untreated control; format: functional, organism-based
Aphis gossypii [2] = experiment: Insecticidal activity against Aphis gossypii (cotton aphid) infested fourth-leaf stage cucumber seedlings followed by compound exposure assessed as insect control after 48 hr post compound treatment relative to untreated control; format: functional, organism-based

CCCCCCCCCCCCC=CCC(=O)OC(COC(=O)CCCCCCCCCCCCCCC)COP(=O)(O)OCC(O)CO (configuration not stated)
Activity (Aphis gossypii [1]): Active | Activity (Aphis gossypii [2]): Dose-dependent effect
